# Experimental data from patent US11498909B2, “Compound acting as antibiotics” (KBP BIOSCIENCES CO., LTD., priority 2018, dated 2022).
# Like-named read-outs stand apart in the source and are kept apart here.
# How the values were obtained:
# Pseudomonas aeruginosa = assay: In vitro antibacterial activity, agar dilution MIC (Experiment 1); format: cell-based
# Procedure: Tested strains: all the clinically separated strains below were purchased from public facilities.
# Escherichia coli ATCC25922, Pseudomonas aeruginosa ATCC27853, Klebsiella pneumoniae ATCC700603, and the like.
# Tested Samples: Imipenem, Ceftazidime: Commercial Products, the Following Experiments were Carried Out According to the Content of an Effective Ingredient in Each Commercial Product;
# The compounds of the present invention, their chemical names, and preparation methods are shown in the preparation example of each compound.
# Experiment method: Agar dilution method, refer to National Committee for Clinical Laboratory Standards. 2006. Methods for Dilution Antimicrobial Susceptibility Tests for Bacteria That Grow Aerobically; Approved Standard—Seventh Edition M7-A7, Vol 26, No. 2, 2006, to determine the MIC of the compound. MIC represents the minimum inhibitory concentration.
# [1] = Pharmacokinetics (PK) determination in SD rats (Experiment 4); format: in vivo; conditions: plasma; for AUC(0-t) / AUC(0-inf): Sprague-Dawley (SD), rat, iv; for AUC(0-inf): read-out: AUCINF_obs
# Procedure: The compound of the present invention, self-prepared and dissolved in a suitable solvent.
# Instrument and equipment: API4000 LC-MS/MS
# Chromatographic column: Waters XBridge C18(2.1×50 mm, […])
# Rat blood collection: Animals were fixed. The animal's tail was heated with a water bathtub 10 minutes before each time point. About 200 μL of the blood was collected through the caudal vein. After the blood collection, the blood was placed in an anticoagulation tube containing heparin sodium. The blood samples were centrifuged at 8000 rpm for 6 minutes at 4° C. to obtain plasma samples. The plasma must be prepared within 30 minutes after the blood collection. The plasma was stored in a refrigerator at −80° C. before the test.
# (1) Test samples were removed from the refrigerator (−80° C.), naturally thawed at room temperature, and then vortexed for 5 minutes;
# (2) 20 μL sample was precisely pipetted to a 1.5 mL centrifuge tube;
# (3) 200 μL of the internal standard solution was added;
# (4) The mixture was vortexed for 5 minutes and centrifuged for 5 minutes (12000 revolutions per minute);
# (5) 100 μL of the supernate was precisely pipetted, 100 μL of water was added, the mixture was vortexed for 5 minutes, and the sample was sent to LC-MS/MS for analysis.
# The results of the concentrations of the test samples (plasma samples) were output with Analyst 1.6.1 of AB Corporation. The meaning value, the standard deviation, the coefficient of variation, and other parameters (not necessary to calculate the parameter that can be directly output from Analyst 1.6.1) were calculated with Microsoft Excel, and the PK parameter is calculated with Pharsight Phoenix 6.1 software.
# [2] = agar dilution (Table 3), read-out: MIC50
# [3] = agar dilution (Table 3), read-out: MIC90
compound,measurement,setting,value
CC(O)C(NC(=O)c1ccc(/C=C/C=C/c2ccco2)cc1)C(=O)NO (racemic) [Compound 25],MIC50,Pseudomonas aeruginosa; [2],1 µg/mL
same,MIC90,Pseudomonas aeruginosa; [3],> 16 µg/mL
"CC(C)(O/N=C(\C(=O)N[C@@H]1C(=O)N2C(C(=O)[O-])=C(C[n+]3ccccc3)CS[C@H]12)c1csc(N)n1)C(=O)O [Ceftazidime, reference compound]",MIC50,Pseudomonas aeruginosa; [2],2 µg/mL
same,MIC90,Pseudomonas aeruginosa; [3],> 16 µg/mL
"C[C@@H](O)[C@H](NC(=O)c1ccc(/C=C/C=C/c2ccco2)cc1)C(=O)NO [Compound 1, 4-((1E,3E)-4-(furan-2-yl)buta-1,3-dienyl)-N-((2S,3R)-3-hydroxy-1-(hydroxyamino)-1-oxobutan-2-yl)benzamide]",MIC50,Pseudomonas aeruginosa; [2],1 µg/mL
same,MIC90,Pseudomonas aeruginosa; [3],> 16 µg/mL
"C[C@@H](O)[C@H](NC(=O)c1ccc(/C=C/C=C/c2ccc(CO)o2)cc1)C(=O)NO [Compound 3, N-((2S,3R)-3-hydroxy-1-(hydroxamino)-1-oxobutan-2-yl)-4-((1E,3E)-4-(5-(hydroxymethyl)furan-2-yl)buta-1,3-dienyl)benzamide]",MIC50,Pseudomonas aeruginosa; [2],2 µg/mL
same,MIC90,Pseudomonas aeruginosa; [3],16 µg/mL
"C[C@H](O)[C@H](NC(=O)c1ccc(C#CC#Cc2ccc(CO)o2)cc1)C(=O)NO [Compound 10, N-((2S,3S)-3-hydroxy-1-(hydroxyamino)-1-oxobutan-2-yl)-4-((5-(hydroxymethyl)furan-2-yl)buta-1,3-diynyl)benzamide]",AUCINF_obs,"[1]; IV 2 mg/kg, 2 mg/kg",4902 ± 532 ng·h/mL
same,AUClast,"[1]; IV 2 mg/kg, 2 mg/kg",4891 ± 533 ng·h/mL
same,Cl_obs,"[1]; IV 2 mg/kg, 2 mg/kg",1.03 ± 0.11 L/h/kg
same,Vz_obs,"[1]; IV 2 mg/kg, 2 mg/kg",1.03 ± 0.11 L/kg
same,t1/2z,"[1]; IV 2 mg/kg, 2 mg/kg",44.4 ± 9.6 min
same,λ_z,"[1]; IV 2 mg/kg, 2 mg/kg",0.97 ± 0.23 h⁻¹
same,MIC50,Pseudomonas aeruginosa; agar dilution (Table 3),0.125 µg/mL
same,MIC90,Pseudomonas aeruginosa; agar dilution (Table 3),1 µg/mL
"C[C@@H](O)[C@H](NC(=O)c1ccc(C#CC#Cc2ccc(CNCCCN)o2)cc1)C(=O)NO [Compound 12, 4-((5-((3-aminopropylamino)methyl)furan-2-yl)buta-1,3-diynyl)-N-((2S,3R)-3-hydroxy-1-(hydroxyamino)-1-oxobutan-2-yl)benzamide]",MIC50,Pseudomonas aeruginosa; [2],2 µg/mL
same,MIC90,Pseudomonas aeruginosa; [3],4 µg/mL
"C[C@@H](O)[C@H](NC(=O)c1ccc(C#CC#Cc2ccc(CN3CCN(C)CC3)o2)cc1)C(=O)NO [Compound 13, N-((2S,3R)-3-hydroxy-1-(hydroxyamino)-1-oxobutan-2-yl)-4-((5-((4-methylpiperazin-1-yl)methyl)furan-2-yl)buta-1,3-diynyl)benzamide]",Cl_obs,[1]; IV 2 mg/kg,4.14 ± 0.70 L/h/kg
same,Vz_obs,[1]; IV 2 mg/kg,2.09 ± 0.39 L/kg
same,t1/2z,[1]; IV 2 mg/kg,21 ± 0.6 min
same,λ_z,[1]; IV 2 mg/kg,1.98 ± 0.04 h⁻¹
same,AUC(0-t),[1]; 2 mg/kg,485 ± 87.4 ng·h/mL
same,AUC(0-inf),[1]; 2 mg/kg,493 ± 87.9 ng·h/mL
same,MIC50,Pseudomonas aeruginosa; [2],2 µg/mL
same,MIC90,Pseudomonas aeruginosa; [3],8 µg/mL
"CNCc1ccc(C#CC#Cc2ccc(C(=O)N[C@H](C(=O)NO)[C@@H](C)O)cc2)o1 [Compound 15, N-((2S,3R)-3-hydroxy-1-(hydroxyamino)-1-oxobutan-2-yl)-4-((5-((methylamino)methyl)furan-2-yl)buta-1,3-diynyl)benzamide]",Cl_obs,[1]; IV 2 mg/kg,1.51 ± 0.27 L/h/kg
same,Vz_obs,[1]; IV 2 mg/kg,1.57 ± 0.28 L/kg
same,t1/2z,[1]; IV 2 mg/kg,44.4 ± 13.2 min
same,λ_z,[1]; IV 2 mg/kg,0.99 ± 0.29 h⁻¹
same,AUC(0-t),[1]; 2 mg/kg,1330 ± 108 ng·h/mL
same,AUC(0-inf),[1]; 2 mg/kg,1350 ± 222 ng·h/mL
same,MIC50,Pseudomonas aeruginosa; [2],0.5 µg/mL
same,MIC90,Pseudomonas aeruginosa; [3],2 µg/mL
"Cc1cc(C#CC#Cc2ccc(C(=O)N[C@H](C(=O)NO)[C@@H](C)O)cc2)oc1CO [Compound 16, N-((2S,3R)-3-hydroxy-1-(hydroxyamino)-1-oxobutan-2-yl)-4-((5-(hydroxymethyl)-4-methylfuran-2-yl)buta-1,3-diynyl)benzamide]",Cl_obs,[1]; IV 2 mg/kg,0.72 ± 0.04 L/h/kg
same,Vz_obs,[1]; IV 2 mg/kg,0.47 ± 0.16 L/kg
same,t1/2z,[1]; IV 2 mg/kg,27 ± 8.4 min
same,λ_z,[1]; IV 2 mg/kg,1.67 ± 0.58 h⁻¹
same,AUC(0-t),[1]; 2 mg/kg,2780 ± 130 ng·h/mL
same,AUC(0-inf),[1]; 2 mg/kg,2790 ± 136 ng·h/mL
same,MIC50,Pseudomonas aeruginosa; [2],0.5 µg/mL
same,MIC90,Pseudomonas aeruginosa; [3],2 µg/mL
"C[C@@H](O)[C@H](NC(=O)c1ccc(C#CC#Cc2oc(CO)cc2-c2ccccc2)cc1)C(=O)NO [Compound 17, N-((2S,3R)-3-hydroxy-1-(hydroxyamino)-1-oxobutan-2-yl)-4-((5-(hydroxymethyl)-3-phenylfuran-2-yl)buta-1,3-diynyl)benzamide]",MIC50,Pseudomonas aeruginosa; [2],8 µg/mL
same,MIC90,Pseudomonas aeruginosa; [3],> 16 µg/mL
"C[C@@H](O)[C@H](NC(=O)c1ccc(C#CC#Cc2ccc(CN3CCNCC3)o2)cc1)C(=O)NO [Compound 24, N-((2S,3R)-3-hydroxy-1-(hydroxyamino)-1-oxobutan-2-yl)-4-((5-(piperazin-1-ylmethyl)furan-2-yl)buta-1,3-diynyl)benzamide]",MIC50,Pseudomonas aeruginosa; [2],4 µg/mL
same,MIC90,Pseudomonas aeruginosa; [3],> 16 µg/mL
"C[C@@H](O)[C@H](NC(=O)c1ccc(C(=O)N/N=C/c2ccco2)cc1)C(=O)NO [Compound 26, 4-(2-(furan-2-methylene)hydrazinecarbonyl)-N-((2S,3R)-3-hydroxy-1-(hydroxyamino)-1-oxobutan-2-yl)-benzamide]",MIC90,Pseudomonas aeruginosa; [3],4 µg/mL
C[C@@H](O)[C@H](NC(=O)c1ccc(C#CC#Cc2ccc(C(N)=O)o2)cc1)C(=O)NO [Compound 27],MIC90,Pseudomonas aeruginosa; [3],4 µg/mL
C[C@@H](O)[C@H](NC(=O)c1ccc(C#CC#Cc2ccc(C(=O)N(C)C)o2)cc1)C(=O)NO [Compound 29],MIC50,Pseudomonas aeruginosa; [2],1 µg/mL
same,MIC90,Pseudomonas aeruginosa; [3],4 µg/mL
C[C@@H](O)[C@H](NC(=O)c1ccc(/C=C/C=C/c2ccc(CO)o2)nc1)C(=O)NO [Compound 32],Cl_obs,[1]; IV 2 mg/kg,5.80 ± 0.53 L/h/kg
same,Vz_obs,[1]; IV 2 mg/kg,4.24 ± 1.65 L/kg
same,t1/2z,[1]; IV 2 mg/kg,30.4 ± 10.8 min
same,λ_z,[1]; IV 2 mg/kg,1.48 ± 0.46 h⁻¹
same,AUC(0-t),[1]; 2 mg/kg,344 ± 33.7 ng·h/mL
same,AUC(0-inf),[1]; 2 mg/kg,347 ± 32.7 ng·h/mL
"C[C@@H](O)[C@H](NC(=O)c1ccc(C#CC#Cc2ccnn2C)cc1)C(=O)NO [Compound 34, N-((2S,3R)-3-hydroxy-1-(hydroxamino)-1-oxobutan-2-yl)-4-((1-methyl-1H-pyrazol-5-yl)buta-1,3-diynyl)benzamide]",MIC50,Pseudomonas aeruginosa; [2],4 µg/mL
same,MIC90,Pseudomonas aeruginosa; [3],> 16 µg/mL
"Cn1nccc1-c1ccc(C#Cc2ccc(C(=O)N[C@H](C(=O)NO)C(C)(C)N)cc2)cc1 [Compound 35, (S)—N-(3-amino-1-(hydroxyamino)-3-methyl-1-oxobutan-2-yl)-4-((4-(1-methyl-1H-pyrazol-5-yl)phenyl)ethynyl)benzamide]",MIC50,Pseudomonas aeruginosa,2 µg/mL
same,MIC90,Pseudomonas aeruginosa,16 µg/mL
"C[C@@H](O)[C@H](NC(=O)c1ccc(C#Cc2ccc(-c3ccnn3C)cc2)cc1)C(=O)NO [Compound 36, N-((2S,3R)-3-hydroxy-1-(hydroxyamino)-1-oxobutan-2-yl)-4-((4-(1-methyl-1H-pyrazol-5-yl)phenyl)ethynyl)benzamide]",MIC50,Pseudomonas aeruginosa; [2],2 µg/mL
same,MIC90,Pseudomonas aeruginosa; [3],> 16 µg/mL
"Cn1nccc1-c1ccc(C#Cc2ccc(-c3ccn(CCC(C)(C(=O)NO)S(C)(=O)=O)c(=O)c3)cc2)cc1 (stereo not drawn) [Compound 38, N-hydroxy-2-methyl-4-(4-(4-((4-(1-methyl-1H-pyrazol-5-yl)phenyl)ethynyl)phenyl)-2-oxopyridin-1(2H)-yl)-2-(methylsulfonyl)butanamide]",Cl_obs,[1]; IV 2 mg/kg,1.01 ± 0.09 L/h/kg
same,Vz_obs,[1]; IV 2 mg/kg,1.81 ± 0.17 L/kg
same,t1/2z,[1]; IV 2 mg/kg,75 ± 5.4 min
same,λ_z,[1]; IV 2 mg/kg,0.56 ± 0.04 h⁻¹
same,AUC(0-t),[1]; 2 mg/kg,1940 ± 168 ng·h/mL
same,AUC(0-inf),[1]; 2 mg/kg,1990 ± 176 ng·h/mL
"C[C@@H](O)[C@H](NC(=O)c1ccc(C#Cc2ccc(-c3ccnn3C)nc2)cc1)C(=O)NO [Compound 40, N-((2S,3R)-3-hydroxy-1-(hydroxyamino)-1-oxobutan-2-yl)-4-((6-(1-methyl-1H-pyrazol-5-yl)pyridin-3-yl)ethynyl)benzamide]",MIC50,Pseudomonas aeruginosa; [2],2 µg/mL
same,MIC90,Pseudomonas aeruginosa; [3],1 µg/mL
"CC(CCn1ccc(-c2ccc(C#Cc3ccc(CN4CCOCC4)o3)cc2)cc1=O)(C(=O)NO)S(C)(=O)=O (stereo not drawn) [Compound 45, N-hydroxy-2-methyl-2-(methylsulfonyl)-4-(4-(4-((5-(morpholinomethyl)furan-2-yl)ethynyl)phenyl)-2-oxopyridin-1(2H)-yl)butanamide]",MIC50,Pseudomonas aeruginosa; [2],4 µg/mL
C[C@@](CCn1ccc(-c2ccc(C#Cc3ccc(CO)o3)cc2)cc1=O)(C(=O)NO)S(C)(=O)=O [Compound 46],MIC50,Pseudomonas aeruginosa; [2],1 µg/mL
same,MIC90,Pseudomonas aeruginosa; [3],8 µg/mL
CC(CCn1ccc(-c2ccc(C#CC#Cc3ccc(CO)o3)cc2)cc1=O)(C(=O)NO)S(C)(=O)=O (stereo not drawn) [Compound 47],MIC50,Pseudomonas aeruginosa; [2],4 µg/mL
same,MIC90,Pseudomonas aeruginosa; [3],> 16 µg/mL
COCc1ccc(C#Cc2ccc(-c3ccn(CCC(C)(C(=O)NO)S(C)(=O)=O)c(=O)c3)cc2)o1 (stereo not drawn) [Compound 48],MIC50,Pseudomonas aeruginosa; [2],2 µg/mL
"N-((2S,3R)-3-hydroxy-1-(hydroxyamino)-1-oxobutan-2-yl)-4-((5-((2-(2-hydroxyethoxy)ethylamino)methyl)furan-2-yl)buta-1,3-diynyl)benzamide [Compound 19]",MIC50,Pseudomonas aeruginosa; agar dilution (Table 3),2 µg/mL
same,MIC90,Pseudomonas aeruginosa; agar dilution (Table 3),8 µg/mL
